Legend:
parental HEK cells = assay: HEK parental Antagonist Counterscreen Assay (non-transfected cells, acetylcholine control); type: cell-based; settings: for EC50: Homo sapiens, HEK293, acetylcholine as control, scientific notation, molarity
Excerpt: C. […] The HEK parental counterscreen utilized the same cells but not transfected with the plasmid. The agonist and antagonist modes were run the same way as the primary screen but acetylcholine was used in place of GPR139 agonist as the control compound.
The HEK parental counterscreen utilized the same cells but not transfected with the plasmid. The antagonist modes assays utilized the cells being plated in the 1536 well plate overnight in growth media prior to dye loading in PDL coated plates and acetylcholine was used in place of GPR139 agonist as the control compound.
The HEK parental counterscreen utilized the same cells but not transfected with the plasmid. Acetylcholine was used in place of GPR139 agonist as the control compound. The cells were plated overnight, similar to the HEK antagonist counterscreen protocol.
The HEK parental counterscreens utilized the same cells but not transfected with the plasmid. Acetylcholine was used in place of GPR139 agonist as the control compound. The cells were plated overnight, similar to the HEK antagonist counterscreen protocol.
For each test compound, percent activation was plotted against compound concentration. A four parameter equation describing a sigmoidal dose-response curve was then fitted with adjustable baseline using Assay Explorer software (Symyx Technologies Inc.).

GPR139 [1] = biological target: T1, GPR139 (Homo sapiens, UniProt Q6DWJ6); assay: [3H]JNJ-63533054 radioligand competition binding assay on membranes of HEK293T/17 cells; design: HA signal peptide (HASP) (N); expressed in transfected cells; host or cells: HEK293T/17 cells (membrane preparation); settings: for inhibition at 10 µM: 10 μM of the indicated compound, (10 μM) JNJ-63533054 as printed in title; for Ki: Ki=IC50/(1+C/Kd), membranes of HEK293T/17 cells expressing human GPR139, read-out: Ki ± SEM
T1 sequence (Q6DWJ6 1-353): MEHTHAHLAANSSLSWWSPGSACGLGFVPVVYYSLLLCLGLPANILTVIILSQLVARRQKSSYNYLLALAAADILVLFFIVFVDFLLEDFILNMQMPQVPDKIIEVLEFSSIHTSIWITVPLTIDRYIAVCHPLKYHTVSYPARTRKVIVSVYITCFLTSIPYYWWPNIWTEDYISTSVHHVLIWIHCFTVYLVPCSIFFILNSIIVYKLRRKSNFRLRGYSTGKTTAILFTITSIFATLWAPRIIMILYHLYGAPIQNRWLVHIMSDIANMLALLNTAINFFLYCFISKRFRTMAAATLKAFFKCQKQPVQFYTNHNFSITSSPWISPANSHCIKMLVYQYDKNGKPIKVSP
Excerpt: Eighteen compounds were selected for additional study. The compounds were re-synthesized and tested in radioligand binding competition assays for their ability to displace [^3H]-labeled reference agonist JNJ-63533054 on GPR139. The GPR139 construct used (pCDNA3.1-HASP-HA-GPR139) contained an N-terminal HA signal peptide (HASP), followed by an HA tag and human GPR139 (NM_001002911.4). HEK293T/17 cells were maintained in Dulbecco's modified Eagle's medium with 10% (v/v) fetal bovine serum, nonessential amino acids, and 1 mM sodium pyruvate.
Competition binding assay: Radioligand binding assay used human GPR139 expressed in HEK293T/17 cells. HEK293T/17 cells were transfected pCDNA3.1-HASP-HA-GPR139. 48 h after, cells were detached from plates by pipetting with PBS, centrifuged at 500×g for 5 min, and then the fluid was aspirated away. The cell pellets were frozen with liquid nitrogen and stored at −80° C. Pellets were homogenized in TE buffer (50 mM Tris-HCl, pH 7.4, 5 mM EDTA) and centrifuged at 1000×g at 4° C. for 5 min. Supernatant was collected and recentrifuged at 30,000×g at 4° C. for 30 min. The pellet was rehomogenized in TE buffer and incubated for 60 minutes at room temperature with eight concentrations of [^3H]JNJ-63533054 (specific activity 24.7 Ci/mmol) ranging from 0.024 nM to 400 nM. The binding reaction was terminated by filtration through GF/C filter (Waterman) followed by washes with cold TE buffer. Filters were dried in a hood overnight followed by the addition of scintillation fluid. Bound radioactivity was counted on a Hidex 600 liquid scintillation counter. […] Nonspecific binding was determined with 10 μM JNJ-63533054. The Kd values of the radioligands and IC50 of the antagonist were calculated by Graphpad Prism. Ki values were calculated as Ki=IC50/(1+C/Kd), where C is concentration of the radioligand.
Various concentrations of selected ligands were then added in the presence of 10 nM [^3H]-JNJ-63533054 and their ability to displace [^3H]labeling on cellular membranes was assessed. FIGS. 3B and 3C present representative data obtained in these experiments. […] The results of these experiments are presented in the Table 3 and confirm selective binding the compounds to GPR139 thereby validating their interaction with the intended target.

GPR139 [2] = biological target: T1, GPR139; assay: GPR139 Antagonist titration assay (calcium detection, HEK-GPR139 cells, vs EC80 of S-JNJ-63533054); settings: for GPR139 Antagonist Activity Averaged Max % Response (±St. Dev.): activity relative to known control; for GPR139 Antagonist Activity Lipophilic Efficiency (logD): based on logD; for GPR139 Antagonist Activity Lipophilic Efficiency (logP): based on logP; for GPR139 Antagonist Activity Hill Slope: fitted dose-response curve
GPR139 [3] = biological target: T1, GPR139; assay: GPR139 Agonist titration / agonist counterscreen assay (calcium detection, HEK-GPR139 cells); type: cell-based; design: expressed in transfected cells; host or cells: HEK Aequorin cells, Maxcyte transient transfection; settings: agonist counterscreen of the antagonists; for EC50: scientific notation, molarity, read-out: GRP139 Agonist activity EC50
Method: GPR activity was assessed using a calcium detection assay. […] Negative control samples were treated with DMSO. […] Intracellular calcium was measured using Calcium 5.

| Structure (SMILES) | HEK antagonist activity Averaged Max % Response (±St. Dev.) (parental HEK cells) | EC50 (parental HEK cells) | inhibition at 10 µM (GPR139 [1]) | Ki (GPR139 [1]) | EC50 (GPR139 [2]) | GPR139 Antagonist Activity Ligand Efficiency (GPR139 [2]) | GPR139 Antagonist Activity Averaged Max % Response (±St. Dev.) (GPR139 [2]) | GPR139 Antagonist Activity Lipophilic Efficiency (logD) (GPR139 [2]) | GPR139 Antagonist Activity Lipophilic Efficiency (logP) (GPR139 [2]) | GPR139 Antagonist Activity Hill Slope (GPR139 [2]) | GRP139 Agonist activity Averaged Max % Response (±St. Dev.) (GPR139 [3]) | EC50 (GPR139 [3]) |
| --- | --- | --- | --- | --- | --- | --- | --- | --- | --- | --- | --- | --- |
| CC(=O)N1N=C(c2ccc(C)cc2)CC1c1ccccc1Cl (stereo not drawn) [SR-01000462122] | 17.80 ± 3.32% | > 16.2 µM | 22 ± 2.59% | 13.3 ± 0.3 µM | 8.7 µM | 0.32 | 79.69 ± 2.61% | 1.04 | 1.04 | 1.19 | −2.6E+0 ± 5.95 ^ % | > 16.2 µM |
| COc1ccccc1CNC(=O)N1c2ccccc2Sc2ccccc21 [SR-01000506165] | 5.72 ± 9.39% | > 14.6 µM | 103 ± 1.95% | 1.1 ± 0.02 µM | 2.8 µM | 0.30 | 86.87 ± 2.82% | 1.14 | 1.14 | 0.52 | 7.66 ± 5.35% | > 14.6 µM |
| Nc1cccc(C(=O)Nc2cc(O)n(-c3c(Cl)cc(Cl)cc3Cl)n2)c1 [SR-01000514922] | 16.24 ± 5.67% | > 14.7 µM | 21.8 ± 14.1% | 0.92 ± 0.02 µM | 8.6 µM | 0.28 | 80.63 ± 3.57% | 1.63 | 0.55 | 0.70 | 1.17 ± 6.37% | > 14.7 µM |
| CC1CCCC(NC(=O)c2cccc(NS(=O)(=O)c3ccc(Br)cc3)c2)C1C (stereo not drawn) [SR-01000594343] | 10.38 ± 17.91% | > 14.1 µM | 87.2 ± 2.37% | 3.05 ± 0.07 µM | 7.7 µM | 0.26 | 64.21 ± 3.85% | 0.51 | 0.36 | −1.40 | 16.98 ± 6.81% | > 14.1 µM |
| COc1ccc(-c2cccc(NS(=O)(=O)c3ccc(I)cc3)c2)nn1 [SR-01000914310] | 26.24 ± 12.88% | > 14.1 µM | 72.2 ± 2.78% | 1.06 ± 0.02 µM | 6 µM | 0.29 | 72.33 ± 6.63% | 1.70 | 1.56 | 1.00 | 7.64 ± 5.47% | > 14.1 µM |
